This is an account of results in patent publication US20230102554A1 (GB002, INC., priority 2019, published 2023).

Broadly, the IC50 is the point on the concentration scale where inhibition reaches its midpoint.

Test [1] addresses T1, Human PDGFRα, cytoplasmic domain (GST-PDGFRα) (Homo sapiens, UniProt P16234).
T1 construct: made in house
Kind of test: Human PDGFRα biochemical inhibition assay (off-chip Mobility Shift Assay).

Test [2] concerns the target T2, Human PDGFRβ, cytoplasmic domain (GST-PDGFRβ) (Homo sapiens, UniProt P09619).
T2 construct: made in house
Kind of test: Human PDGFRβ biochemical inhibition assay (off-chip Mobility Shift Assay). Put shortly:
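GST-tagged cytoplasmic domain (aa 557-1106) from baculovirus was incubated 1 h at room temperature with compound, CSKtide, ATP at Km and Mg²⁺ in HEPES buffer, pH 7.5. Phosphorylated and unphosphorylated peptide were separated by off-chip mobility shift, and the product ratio P/(P+S) gave percent inhibition.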

T2 sequence (P09619 with tags, fused parts or gaps): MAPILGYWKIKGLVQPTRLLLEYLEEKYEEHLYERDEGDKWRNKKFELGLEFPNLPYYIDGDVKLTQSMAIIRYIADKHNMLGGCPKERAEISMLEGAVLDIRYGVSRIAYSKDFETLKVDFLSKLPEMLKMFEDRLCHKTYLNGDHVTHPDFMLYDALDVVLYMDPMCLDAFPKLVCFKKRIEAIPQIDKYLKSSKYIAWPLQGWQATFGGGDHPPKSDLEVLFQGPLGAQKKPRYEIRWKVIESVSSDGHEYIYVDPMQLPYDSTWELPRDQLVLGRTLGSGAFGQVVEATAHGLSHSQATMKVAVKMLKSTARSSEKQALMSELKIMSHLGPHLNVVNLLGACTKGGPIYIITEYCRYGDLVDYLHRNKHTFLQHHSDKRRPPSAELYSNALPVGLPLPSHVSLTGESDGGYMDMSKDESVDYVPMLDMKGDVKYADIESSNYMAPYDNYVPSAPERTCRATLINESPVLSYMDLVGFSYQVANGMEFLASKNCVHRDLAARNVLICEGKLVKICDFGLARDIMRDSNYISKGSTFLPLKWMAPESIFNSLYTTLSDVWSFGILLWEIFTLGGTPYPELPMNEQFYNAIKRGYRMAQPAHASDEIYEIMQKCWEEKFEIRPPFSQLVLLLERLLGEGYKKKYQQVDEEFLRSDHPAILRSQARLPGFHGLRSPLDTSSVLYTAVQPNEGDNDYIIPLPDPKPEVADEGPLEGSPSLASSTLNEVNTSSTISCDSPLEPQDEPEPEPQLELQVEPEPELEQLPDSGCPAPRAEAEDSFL
T1 sequence (P16234 550-1089 T674I): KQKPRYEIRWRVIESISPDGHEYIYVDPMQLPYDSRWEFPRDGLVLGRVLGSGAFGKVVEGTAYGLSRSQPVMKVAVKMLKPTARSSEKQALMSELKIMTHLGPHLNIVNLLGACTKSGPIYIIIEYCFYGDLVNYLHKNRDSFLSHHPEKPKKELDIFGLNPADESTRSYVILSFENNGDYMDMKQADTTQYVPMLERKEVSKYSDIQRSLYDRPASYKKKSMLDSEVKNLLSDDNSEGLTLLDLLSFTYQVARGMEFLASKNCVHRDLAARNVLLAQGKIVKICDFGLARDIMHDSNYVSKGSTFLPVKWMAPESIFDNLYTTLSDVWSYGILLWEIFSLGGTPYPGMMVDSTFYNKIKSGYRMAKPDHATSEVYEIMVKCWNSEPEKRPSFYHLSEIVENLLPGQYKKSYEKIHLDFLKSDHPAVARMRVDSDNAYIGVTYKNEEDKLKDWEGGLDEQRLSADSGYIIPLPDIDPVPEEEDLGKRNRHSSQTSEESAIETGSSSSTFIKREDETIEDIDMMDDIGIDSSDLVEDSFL

Regarding `CCn1cc2ncc(N[C@@H](C)c3cccc(NC(=O)c4ccc5c(c4)OCO5)c3)nc2n1` [Compound 64, (S)-N-(3-(1-((2-ethyl-2H-pyrazolo[3,4-b]pyrazin-6-yl)amino)ethyl)phenyl) benzo[d][1,3]dioxole-5-carboxamide], the IC50 in test [1] was under 300 nM; in test [2] it was 300 to 1000 nM.
For `CCn1cc2ncc(N[C@@H](C)c3cccc(NC(=O)c4ccc(CN5CCC6(CC5)COC6)c(C)c4)c3)nc2n1` [Compound 480, (S)-4-((2-oxa-7-azaspiro[3.5]nonan-7-yl)methyl)-N-(3-(1-((2-ethyl-2H-pyrazolo[3,4-b]pyrazin-6-yl)amino)ethyl)phenyl)-3-methylbenzamide], in that order: under 300 nM and 300 to 1000 nM.
Regarding `CCn1cc2ncc(N[C@@H](C)c3cccc(NC(=O)c4cnc5[nH]ncc5c4)c3)nc2n1` [Compound 60, (S)-N-(3-(1-((2-ethyl-2H-pyrazolo[3,4-b]pyrazin-6-yl)amino)ethyl)phenyl)-1H-pyrazolo[3,4-b]pyridine-5-carboxamide], the IC50 in test [1] and in test [2] was at least 1000 nM in each case.
In the case of `CCn1cc2ncc(N[C@@H](C)c3cc(NC(=O)Cc4ccc(C(F)(F)F)cn4)ccc3F)nc2n1` [Compound 654, (S)-N-(3-(1-((2-ethyl-2H-pyrazolo[3,4-b]pyrazin-6-yl)amino)ethyl)-4-fluorophenyl)-2-(5-(trifluoromethyl)pyridin-2-yl) acetamide], the IC50 in test [1] was under 300 nM; in test [2], at least 1000 nM.
Consider `CCn1cc2ncc(N[C@@H](C)c3cccc(NC(=O)c4ccc(N5CCN(C)CC5)c(F)c4)c3)nc2n1` [Compound 367, (S)-N-(3-(1-((2-ethyl-2H-pyrazolo[3,4-b]pyrazin-6-yl)amino)ethyl)phenyl)-3-fluoro-4-(4-methylpiperazin-1-yl) benzamide], for which the IC50 is 300 to 1000 nM in test [1] and at least 1000 nM in test [2].
For `CCn1cc2ncc(N[C@@H](C)c3cccc(NC(=O)Cc4cc(C)ccn4)c3)nc2n1` [Compound 678, (S)-N-(3-(1-((2-ethyl-2H-pyrazolo[3,4-b]pyrazin-6-yl)amino)ethyl)phenyl)-2-(4-methylpyridin-2-yl)acetamide], in that order: under 300 nM and at least 1000 nM.
For `CCn1cc2ncc(N[C@@H](C)c3cc(NC(=O)c4cnc(OCC5CC5)c(C)c4)ccc3F)nc2n1` [Compound 318, (S)-6-(cyclopropylmethoxy)-N-(3-(1-((2-ethyl-2H-pyrazolo[3,4-b]pyrazin-6-yl)amino)ethyl)-4-fluorophenyl)-5-methylnicotinamide], in that order: under 300 nM and under 300 nM.
For `CCn1cc2ncc(N[C@@H](C)c3cccc(NC(=O)c4ccc(CN5CCN(C)CC5)c(C5CC5)c4)c3)nc2n1` [Compound 502, (S)-3-cyclopropyl-N-(3-(1-((2-ethyl-2H-pyrazolo[3,4-b]pyrazin-6-yl)amino)ethyl)phenyl)-4-((4-methylpiperazin-1-yl)methyl)benzamide], in that order: under 300 nM and under 300 nM.
Consider `Cc1cncc(C(=O)Nc2cccc([C@H](C)Nc3cnc4[nH]nc(-c5cnn(C)c5)c4n3)c2)c1` [Compound 551, (S)-5-methyl-N-(3-(1-((3-(1-methyl-1H-pyrazol-4-yl)-1H-pyrazolo[3,4-b]pyrazin-5-yl)amino)ethyl)phenyl) nicotinamide], for which the IC50 in test [1] and in test [2] was under 300 nM each time.
In the case of `C[C@H](Nc1cnc2cnn(C)c2n1)c1cccc(NC(=O)c2cnc3c(ccn3C)c2)c1` [Compound 169, (S)-1-methyl-N-(3-(1-((1-methyl-1H-pyrazolo[3,4-b]pyrazin-6-yl)amino)ethyl)phenyl)-1H-pyrrolo[2,3-b] pyridine-5-carboxamide], the IC50 in test [1] and in test [2] was under 300 nM throughout.
`Cc1cncc(C(=O)Nc2cccc([C@H](C)Nc3cnc4[nH]cc(-c5cccnc5)c4n3)c2)c1` [Compound 591, (S)-5-methyl-N-(3-(1-((7-(pyridin-3-yl)-5H-pyrrolo[2,3-b]pyrazin-2-yl)amino)ethyl)phenyl)nicotinamide]: the half-inhibitory concentration (IC50) in test [1] and in test [2] was under 300 nM in each case.
